Assay results: EPA's ToxValDB 9.5 (doi:10.2903/j.efsa.2014.3508)

Experiments:
Apis mellifera = settings: acute, mortality
Colinus virginianus = settings: acute, oral, mortality
Coturnix japonica = settings: reproduction developmental; duration: 6 weeks; reproduction
Oryctolagus sp. = settings: developmental; development
Daphnia magna = settings: chronic/long-term; duration: 21 days; mobility
Lepomis macrochirus = settings: acute; duration: 96 hours; mortality
Oncorhynchus mykiss = settings: chronic/long-term; duration: 87 days; growth
Aphidius rhopalosiphi = assay: LR50; higher = less toxic; settings: acute; duration: 48 hours; mortality
Typhlodromus pyri = assay: LR50; higher = less toxic; settings: chronic/long-term; duration: 7 days; mortality

SMILES: CCOc1nc(NC)nc(NC(=O)NS(=O)(=O)c2ccccc2C(=O)OC)n1 [Ethametsulfuron-methyl]
- LD50 (Apis mellifera; duration: 48 hours, oral, unspecified): 40.8 µg/piece
- LD50 (Apis mellifera; duration: 72 hours, dermal): 4.62 µg/piece
- LC50 (Colinus virginianus; duration: 5 days, diet): > 1160 mg/kg-day
- LD50 (Colinus virginianus): 2250 mg/kg-day
- LC50 (Tagia sp.; acute, duration: 14 days, mortality): 116 mg/kg
- NOEC (Tagia sp.; chronic/long-term, duration: 56 days, reproduction): 27.3 mg/kg
- NOAEL (Coturnix japonica): 229 mg/kg-day
- LD50 (Rattus norvegicus; acute, oral, mortality): > 5000 mg/kg-day
- NOAEL (Rattus norvegicus; chronic, duration: 2 years, clinical chemistry): 21 mg/kg-day
- NOAEL (Oryctolagus sp.): < 250 mg/kg-day
- NOEC (Daphnia magna): 4.7 mg/L
- LC50 (Lepomis macrochirus): > 123 µg/mL
- NOEC (Oncorhynchus mykiss): 5.4 mg/L
- LR50 (Aphidius rhopalosiphi): > 18.8 g/ha
- LR50 (Typhlodromus pyri): 11.4 g/ha
